Several values for one entry are separate records, joined by “and”; a condition that tells them apart may be missing. Identical values can stand only once. Like-named read-outs stand apart in the source and are kept apart here.
Key:
[1] = set-up: method as in PMID 25922266; details: rat plasma; cited from earlier work
[2] = system: trypomastigote forms of T. cruzi, Y strain; assay: Trypanocidal activity on trypomastigote forms (viability by counting); format: cell-based, Trypanosoma cruzi; details: for IC50: Trypanosoma cruzi, Y strain, 24 h; for Selectivity Index (SI) Trypomastigote: ratio CC50 (LLC-MK2) / IC50 trypomastigote
Procedure: (§1) Initially, the prepared esters were submitted to in vitro tests using the microdilution technique in 96-well plates to evaluate the trypanocidal activity against the epimastigote evolutionary form at different concentrations (200–3.12 μg/mL). Then, the compounds with the best activity were tested against the trypomastigote form of T. cruzi. In both assays, IC50 values were calculated; a compound is considered to have trypanocidal activity when IC50 <40 μM [21]. The results are expressed in Table 1.
Trypomastigote forms were obtained by infecting LLC-MK2 cells with the parasite; in this way, the cells were incubated for 24 h in T-25/75 cm^2 flasks at 37 °C in an atmosphere with 5% CO2 in DMEM medium supplemented with 2% FBS and 1% antibiotic. Subsequently, the trypomastigote forms were distributed in 96-well plates treated with piplartine analogues at different concentrations (200; 100; 50; 25; 12.5; 6.25; 3.12 μg/mL) and incubated at 37 °C for 24 h. The assessment of cell viability was performed by counting, and the IC50 was defined.

[3] = system: epimastigote forms of T. cruzi; set-up: method as in doi:10.1007/s00044-008-9161-9; details: read-out: IC50 growth of epimastigote forms; cited from earlier work
[4] = system: epimastigote forms of T. cruzi, Y strain; assay: Trypanocidal activity on epimastigote forms (growth inhibition, Neubauer chamber count); format: cell-based, Trypanosoma cruzi; details: for IC50: Trypanosoma cruzi; for Selectivity Index (SI) Epimastigote: ratio CC50 (LLC-MK2) / IC50 epimastigote
Procedure: as §1
Initially, epimastigotes were cultured and distributed in 96-well plates at a density of 10^6 cells/mL in liver infusion tryptose medium supplemented with 10% fetal bovine serum (FBS) and 1% antibiotic. Then, the cells were treated with piplartine analogues at different concentrations and incubated at 28 °C for 24 h. To quantify the growth inhibition of the parasites, a Neubauer chamber was used, and the IC50 was defined.

[5] = In vitro cytotoxicity, MTT assay; format: cell-based, Rhesus monkey; details: Rhesus monkey, MTT, 24 h, read-out: LLCK-MK2 CC50
Procedure: The compounds were considered selective for the parasite when SI ≥ 10 [21]. The results are expressed in Table 2.
For the cytotoxicity analysis, the (3-[4,5-dimethylthiazol-2-yl]-2,5 diphenyl tetrazolium bromide) (MTT) assay was used, in which the LLC-MK2 cells were cultured in Dulbecco’s Modified Eagle Medium (DMEM), then exposed to the piplartine analogues at different concentrations (25–200 μg/mL) and incubated for 24 h at 37 °C. Then MTT was added, and the cells were incubated for 4 h, after which 10% sodium dodecyl sulfate was added. […] To calculate the relative cell viability, cells treated only with sterile phosphate-buffered saline were used as a negative control. The experiments were conducted in triplicates.

[6] = system: amastigote form of the parasite; set-up: method as in PMID 25880257; details: cited from earlier work
[7] = system: epimastigote form of T. cruzi; set-up: method as in PMID 31775321; details: cited from earlier work

Row | Compound | IC50 ([4]; Y strain, 24 h) | CC50 at 24 h [5] | Selectivity Index (SI) Epimastigote [4] | CC50 at 24 h ([5]; LLC-MK2 renal epithelial cells) | further results
1 | COc1cc(C=CC(=O)O)cc(OC)c1OC [3,4,5-trimethoxycinnamic acid] | – | – | – | – | bioavailability [1]: high bioavailability; oral absorption [1]: rapid oral absorption
2 | O=C(Cn1ccnc1[N+](=O)[O-])NCc1ccccc1 [Benznidazole, reference compound] | 23 µg/mL and 115 µM | – | – | – | IC50 [2]: 32.3 µg/mL and 161 µM; IC50 [3]: 42.7 µM
3 | COC(=O)/C=C/c1cc(OC)c(OC)c(OC)c1 [Compound 1, (E)-Methyl 3-(3,4,5-trimethoxyphenyl)acrylate] | 31.5 µg/mL and 125 µM | 126 µg/mL and 501 µM | 4.01 | – | –
4 | CCOC(=O)/C=C/c1cc(OC)c(OC)c(OC)c1 [Compound 2] | 85.7 µg/mL and 322 µM | > 200 µg/mL and > 751 µM | >2.3 | – | –
5 | CCCOC(=O)/C=C/c1cc(OC)c(OC)c(OC)c1 [Compound 3] | 90.1 µg/mL and 321 µM | 148 µg/mL and 526 µM | 1.6 | – | –
6 | COc1cc(/C=C/C(=O)OC(C)C)cc(OC)c1OC [Compound 4] | 74.5 µg/mL and 266 µM | > 200 µg/mL and > 714 µM | >2.7 | – | –
7 | CCCCCOC(=O)/C=C/c1cc(OC)c(OC)c(OC)c1 [Compound 5] | 20.2 µg/mL and 65.5 µM | > 200 µg/mL and > 649 µM | >9.9 | – | –
8 | CCCCCCCCCCOC(=O)/C=C/c1cc(OC)c(OC)c(OC)c1 [Compound 6] | – | > 200 µg/mL and > 528 µM | – | – | trypanocidal activity against epimastigote form (in words) ([4]; Y strain): suppressed the trypanocidal activity; Epimastigote IC50 ([4]; Y strain, 24 h): n*
9 | COc1ccc(COC(=O)/C=C/c2cc(OC)c(OC)c(OC)c2)cc1 [Compound 7] | 56.4 µg/mL and 157 µM | – | 3.5 | 196 µg/mL and 547 µM | –
10 | COc1cccc(COC(=O)/C=C/c2cc(OC)c(OC)c(OC)c2)c1 [Compound 8] | 40.3 µg/mL and 112 µM | – | 2.5 | 100 µg/mL and 280 µM | IC50 [2]: 64.4 µg/mL and 180 µM; Selectivity Index (SI) Trypomastigote [2]: 1.6
11 | COc1cc(/C=C/C(=O)OCc2ccc(C)cc2)cc(OC)c1OC [Compound 9] | 61.8 µg/mL and 180 µM | – | 3.0 | 183 µg/mL and 534 µM | IC50 [2]: 39.9 µg/mL and 123 µM; Selectivity Index (SI) Trypomastigote [2]: 4.6
12 | COc1cc(/C=C/C(=O)OCc2ccccc2)cc(OC)c1OC [Compound 10] | 40 µg/mL and 122 µM | – | 4.6 | 183 µg/mL and 557 µM | IC50 [2]: 13.4 µg/mL and 40.8 µM; Selectivity Index (SI) Trypomastigote [2]: 13.7
13 | C=C(C)[C@@H]1CC=C(COC(=O)/C=C/c2cc(OC)c(OC)c(OC)c2)CC1 [Compound 12] | 70.1 µg/mL and 188 µM | – | 1.5 | 106 µg/mL and 284 µM | IC50 [2]: 38.7 µg/mL and 104 µM; Selectivity Index (SI) Trypomastigote [2]: 2.7
14 | COc1cc(C=CC(=O)OC2CC3CCC2(C)C3(C)C)cc(OC)c1OC (stereo not shown) [Compound 13] | 155 µg/mL and 414 µM | – | 0.5 | 71.2 µg/mL and 190 µM | –
15 | CCOC(=O)/C=C/c1ccc(O)c(O)c1 [ethyl caffeate] | – | – | – | – | IC50 [6]: 18.3 µM
16 | COC(=O)/C=C/c1ccc(O)cc1 [methyl p-coumarate] | – | – | – | – | IC50 [7]: 601 µM
17 | COc1cc(/C=C/C(=O)N2CCC=CC2=O)cc(OC)c1OC [piplartine] | – | – | – | – | IC50 [3]: 21 µM

From PMC10254306, “Piplartine-Inspired 3,4,5-Trimethoxycinnamates: Trypanocidal, Mechanism of Action, and In Silico Evaluation” (Molecules, 2023)
